Test system: HFSKF-II cells (human skin fibroblast)
Test: Ability to suppress the generation of active oxygen caused by ultraviolet radiation
Type: cell-based
Details: 100 μg/mL in medium with 0.03 wt % hydrogen peroxide; UV A 365 nm 4.4 J/cm^2; DCFH-DA fluorescence; six wells
Method: HFSKF-II cells (human skin fibroblast; obtained from RIKEN) were seeded in a 96-well plate at a concentration of 2×10^5 cells/well, and using 0.1 mL of standard medium (Ham's F-12 medium containing 15% of fetal calf serum; manufactured by Sigma-Aldrich), these were incubated for 24 hours at 37° C. in a 5% CO2 atmosphere. Next, the plate was washed three times with PBS by the method of Hong Wang et al. (Free Radic. Biol. Med., 1999). Then the medium was replaced with a standard medium containing 100 μM of DCFH-DA (2′,7′-dichlorofluorescein diacetate; manufactured by Sigma-Aldrich) and this was incubated for 10 minutes at 37° C. in a 5% CO2 atmosphere. Next, the plate was washed three times with PBS. […] UV A is a UV radiation that readily passes through skin, and is known to promote skin aging.
Next, the fluorescence F of the DCFH-DA that is emitted due to the presence of active oxygen was measured with a multispectrometer (Varioscan; excitation wavelength: 485±10 nm, detection wavelength: 530±10 nm; Thermo Electron Corporation), and the suppression rate of the active oxygen generation due to UV radiation when the pueraria flower extract was employed was calculated from the following formula. […] Fsample: The fluorescence measured after the medium was replaced with a standard medium that contains pueraria flower extract and UV A was irradiated. […]

With `COC1=C(OC)C(=O)C(C/C=C(\C)CC/C=C(\C)CC/C=C(\C)CC/C=C(\C)CC/C=C(\C)CC/C=C(\C)CC/C=C(\C)CC/C=C(\C)CC/C=C(\C)CCC=C(C)C)=C(C)C1=O` [Coenzyme Q10, coenzyme Q10] the “Suppression rate of the active oxygen generation (%)” value was 30.6 ± 7.7%.

— US20070243144A1, “External Preparation” (TOYO SHINYAKU CO., LTD, priority 2004, published 2007)
